Data taken from ChEMBL document CHEMBL3097995, “NAD-based inhibitors with anticancer potential” (Bioorg Med Chem Lett, 2014).

Legend:
[1] = molecular target: Inosine-5'-monophosphate dehydrogenase 1 (Homo sapiens, UniProt P20839); test: Inhibition of IMPDH1 (unknown origin)
K562 = test: Antiproliferative activity against human K562 cells; assay type: functional, cell-based
DU-145 = test: Antiproliferative activity against human DU145 cells; assay type: functional, cell-based
[2] = molecular target: Inosine-5'-monophosphate dehydrogenase 2 (Homo sapiens, UniProt P12268); test: Inhibition of IMPDH2 (unknown origin)
PC-3 = test: Antiproliferative activity against human PC3 cells; assay type: functional, cell-based
HL-60 = test: Antiproliferative activity against human HL60 cells; assay type: functional, cell-based
Plasma = test: Metabolic stability in human plasma; assay type: ADME, cell-free
HeLa = test: Antiproliferative activity against human HeLa cells; assay type: functional, cell-based
HT-29 = test: Antiproliferative activity against human HT-29 cells; assay type: functional, cell-based
Homo sapiens = organism: Homo sapiens; test: Selectivity ratio of Ki for IMPDH1 (unknown origin) to Ki for IMPDH2 (unknown origin)

Chain of Inosine-5'-monophosphate dehydrogenase 1 (P20839 whole entry): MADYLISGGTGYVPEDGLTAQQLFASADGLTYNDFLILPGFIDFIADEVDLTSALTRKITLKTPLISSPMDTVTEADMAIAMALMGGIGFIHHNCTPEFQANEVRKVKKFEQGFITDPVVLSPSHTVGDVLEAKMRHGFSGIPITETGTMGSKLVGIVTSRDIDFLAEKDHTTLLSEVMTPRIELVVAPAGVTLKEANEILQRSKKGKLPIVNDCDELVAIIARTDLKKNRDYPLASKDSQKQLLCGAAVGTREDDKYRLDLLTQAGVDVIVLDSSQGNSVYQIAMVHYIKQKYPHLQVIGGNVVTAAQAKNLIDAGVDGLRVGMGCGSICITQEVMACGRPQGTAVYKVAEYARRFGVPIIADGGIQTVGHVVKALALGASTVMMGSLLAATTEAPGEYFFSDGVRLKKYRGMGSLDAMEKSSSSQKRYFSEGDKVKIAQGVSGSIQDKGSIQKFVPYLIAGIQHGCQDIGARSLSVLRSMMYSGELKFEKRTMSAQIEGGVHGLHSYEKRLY

SMILES	Ki [1]	IC50 (K562)	IC50 (DU-145)	Ki [2]	IC50 (PC-3)	IC50 (HL-60)	Stability (Plasma)	IC50 (HeLa)	IC50 (HT-29)	Ratio Ki (Homo sapiens)
COc1c(C)c2c(c(O)c1C/C=C(\C)CCC(=O)N[C@H](C(=O)NC[C@H]1O[C@@H](n3cnc4c(N)ncnc43)[C@H](O)[C@@H]1O)C(C)C)C(=O)OC2	0.019 µM	> 100 µM	> 100 µM	0.07 µM	> 100 µM	> 100 µM	–	–	–	–
COc1c(C)c2c(c(O)c1C/C=C(\C)CCC(=O)OC[C@@H]1O[C@H](n3cnc4c(N)ncnc43)[C@@H](O)[C@H]1O)C(=O)OC2	2.55 µM	1.6 µM	1.5 µM	0.231 µM	–	2.1 µM	Unstable	–	–	–
COc1c(C)c2c(c(O)c1C/C=C(\C)CCC(=O)NC[C@H]1O[C@@H](n3cnc4c(N)ncnc43)[C@H](O)[C@@H]1O)C(=O)OC2	0.265 µM	49 µM	> 100 µM	0.084 µM	> 100 µM	> 100 µM	–	–	–	–
COc1c(C)c2c(c(O)c1C/C=C(\C)CCC(=O)N[C@@H](CO)C(=O)O)C(=O)OC2	2.81 µM	> 100 µM	> 100 µM	2.79 µM	> 100 µM	> 100 µM	–	–	–	–
COc1c(C)c2c(c(O)c1C/C=C(\C)CCC(=O)N[C@@H](C(=O)O)C(C)C)C(=O)OC2	2.03 µM	> 100 µM	> 100 µM	1.23 µM	> 100 µM	> 100 µM	–	–	–	–
COc1c(C)c2c(c(O)c1CCOP(=O)(O)CP(=O)(O)OC[C@H]1O[C@@H](n3cnc4c(N)nc(-c5ccco5)nc43)[C@H](O)[C@@H]1O)C(=O)OC2	0.063 µM	0.8 µM	–	0.037 µM	–	–	–	3 µM	9.8 µM	–
COc1c(C)c2c(c(O)c1C/C=C(\C)CCC(=O)N[C@@H](Cc1ccccc1)C(=O)O)C(=O)OC2	0.854 µM	> 100 µM	> 100 µM	0.163 µM	> 100 µM	> 100 µM	–	–	–	–
COc1c(C)c2c(c(O)c1CCOP(=O)(O)CP(=O)(O)OC[C@H]1O[C@@H](n3cnc4c([N+](=O)[O-])cccc43)[C@H](O)[C@@H]1O)C(=O)OC2	0.876 µM	> 100 µM	–	0.749 µM	–	–	–	> 100 µM	> 100 µM	–
COc1c(C)c2c(c(O)c1C/C=C(\C)CCC(=O)N[C@@H](C(=O)NC[C@H]1O[C@@H](n3cnc4c(N)ncnc43)[C@H](O)[C@@H]1O)C(C)C)C(=O)OC2	0.003 µM	> 100 µM	> 100 µM	0.088 µM	> 100 µM	> 100 µM	–	–	–	–
COc1c(C)c2c(c(O)c1C/C=C(\C)CCC(=O)OCCN1CCOCC1)C(=O)OC2 [MYCOPHENOLATE MOFETIL]	–	–	–	–	–	–	Unstable	–	–	–
COc1c(C)c2c(c(O)c1C/C=C(\C)CCC(=O)N[C@@H](Cc1ccc(O)cc1)C(=O)O)C(=O)OC2	1.68 µM	> 100 µM	> 100 µM	0.215 µM	> 100 µM	> 100 µM	–	–	–	–
COc1c(C)c2c(c(O)c1C/C=C(\C)CCC(=O)NCC(=O)O)C(=O)OC2	0.892 µM	10 µM	> 100 µM	0.321 µM	> 100 µM	> 100 µM	–	–	–	–
COc1c(C)c2c(c(O)c1C/C=C(\C)CCC(=O)N1CCC[C@H]1C(=O)O)C(=O)OC2	0.906 µM	–	–	0.524 µM	–	–	–	–	–	–
COc1c(C)c2c(c(O)c1CCOP(=O)(O)CP(=O)(O)OC[C@H]1O[C@@H](n3cnc4c(N)cccc43)[C@H](O)[C@@H]1O)C(=O)OC2	0.491 µM	2.5 µM	–	0.165 µM	–	–	–	25 µM	> 100 µM	3
COC(=O)[C@H](Cc1ccc(O)cc1)NC(=O)CC/C(C)=C/Cc1c(O)c2c(c(C)c1OC)COC2=O	1.83 µM	6.8 µM	6.3 µM	0.364 µM	11 µM	4.7 µM	–	–	–	–
COC(=O)[C@H](CO)NC(=O)CC/C(C)=C/Cc1c(O)c2c(c(C)c1OC)COC2=O	1.02 µM	4.2 µM	13 µM	0.094 µM	> 100 µM	18 µM	–	–	–	–
COc1c(C)c2c(c(O)c1C/C=C(\C)CCC(=O)N[C@@H](Cc1c[nH]c3ccccc13)C(=O)O)C(=O)OC2	0.056 µM	> 100 µM	> 100 µM	0.235 µM	> 100 µM	> 100 µM	–	–	–	–
COc1c(C)c2c(c(O)c1C/C=C(\C)CCC(=O)NCC(=O)NC[C@H]1O[C@@H](n3cnc4c(N)ncnc43)[C@H](O)[C@@H]1O)C(=O)OC2	0.259 µM	> 100 µM	> 100 µM	0.188 µM	> 100 µM	> 100 µM	–	–	–	–
COC(=O)[C@H](Cc1ccccc1)NC(=O)CC/C(C)=C/Cc1c(O)c2c(c(C)c1OC)COC2=O	4.36 µM	50 µM	> 100 µM	0.437 µM	> 100 µM	35 µM	–	–	–	–
